The values below come from US20030119846A1, “Compounds with 5-ht activity useful for controlling visual field loss” (priority 2000, published 2003).

SMILES strings stand for the structures. Where a name gives a salt, the structure may show the parent alone.

The IC50 is the midpoint of a concentration-inhibition curve. The term EC50 denotes the concentration giving half of the maximal effect.

For series [1], the target named is T1, human cloned 5-HT1A receptors (Homo sapiens, UniProt P08908).
T1 construct: purchased NEN (manufactured by Biosignal, Inc., Montreal, Canada); host or cells: CHO cells
T1 sequence (P08908 1-422): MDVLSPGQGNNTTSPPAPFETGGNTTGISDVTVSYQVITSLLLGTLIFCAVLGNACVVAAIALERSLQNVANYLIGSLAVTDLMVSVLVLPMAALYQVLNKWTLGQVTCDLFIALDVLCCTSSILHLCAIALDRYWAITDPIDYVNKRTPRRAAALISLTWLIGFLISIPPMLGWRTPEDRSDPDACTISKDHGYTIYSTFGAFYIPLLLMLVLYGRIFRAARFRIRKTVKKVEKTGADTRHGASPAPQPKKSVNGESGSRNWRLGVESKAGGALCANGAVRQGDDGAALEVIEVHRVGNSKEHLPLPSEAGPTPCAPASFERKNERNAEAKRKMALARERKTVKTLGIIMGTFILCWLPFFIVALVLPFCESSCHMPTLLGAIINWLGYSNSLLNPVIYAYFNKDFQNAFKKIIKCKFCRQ
Kind of series: 5-HT1A Receptor Binding Assay ([3H]8-OH-DPAT, CHO cell membranes). The settings on record: 0.25 nM [3H]8-OH-DPAT, 27° C., 1 h; read-out: Receptor Binding (IC50 nM, SEM). Here is the method:
5-HT1A binding studies were performed with human cloned receptors expressed in Chinese hamster ovary (CHO) cells using (^3H)8-OH DPAT as the ligand. Membranes from Chinese hamster ovary cells (CHO) expressing cloned 5-HT1A receptors (manufactured for NEN by Biosignal, Inc., Montreal, Canada) were homogenized in approximately 40 volumes of 50 mM Tris pH 7.4 for 5 sec. Drug dilutions were made using a Beckman Biomek 2000 robot (Beckman Instruments, Fullerton, Calif.). Incubations were conducted with membrane prep, test compounds, and 0.25 nM [^3H]8-OH-DPAT (NEN, Boston, Mass.) in the same buffer at 27° C. for 1 h. Assays were terminated by rapid vacuum filtration over Whatman GF/B glass fiber filters pre-soaked in 0.3% polyethyleneimine. Bound radioactivity was measured using liquid scintillation spectrometry. Data were analyzed using non-linear curve fitting programs (Sharif et al., J. Pharmac. Pharmacol. 51:685-694, 1999).
Ligand binding studies can also be run using membrane preparations from calf and rat brain (local source) and human cortex membranes. Specific brain regions were dissected out, homogenized in 10 volumes of 0.32 M sucrose and centrifuged for 10 min at 700×g. […] Ki values were calculated using the Cheng-Prusoff equation (De Vry et al., J. Pharm. Exper. Ther. 284:1082-1094, 1998.)

Series [2] concerns retina (photo-oxidative injury). The series is described as follows: Neuroprotective effects in the acute blue-light damage model in the rat (ERG). The settings on record: for A-wave Amplitude Mean / B-wave Amplitude Mean: ERG after 5-day recovery. The series is classed as in vivo, Sprague Dawley rats. As for the experimental part: Male Sprague Dawley rats were randomly assigned to vehicle treatment (N=15) or drug treatment (0.5 mg/kg [N=5] or 1 mg/kg [N=15]) experimental groups. Xaliproden hydrochloride or vehicle was administered by intraperitonal (IP) injection at 48, 24, and 0 hours prior to light exposure. Photo-oxidative injury to the retina was induced in dark-adapted rats (24 hours) by a 6-hour blue-light exposure (220 fc). Control rats (N=11) were housed in their home cage under normal cyclic light exposure. Rats were single housed in clear polycarbonate cages during this light exposure.
The electroretinogram (ERG) was recorded after a five day recovery period from dark-adapted anesthetized rats (Ketamine-HCl, 75 mg/Kg; Xylazine, 6 mg/Kg). The eye's electrical response to a flash of light was elicited by viewing a ganzfeld. ERGs to a series of light flashes increasing in intensity were digitized to analyze temporal characteristics of the waveform and determine the response voltage-log intensity (VlogI) relationship. Changes in the ERG a-wave are associated with photoreceptor and retinal pigment epithelium damage while damage to the inner retina is reflected in changes in the ERG b-wave.

For another series, the target named is T2, 5-HT1A receptors (UniProt P08908).
T2 sequence (P08908 1-422): T1 sequence (P08908 1-422)
The series is described as follows: 5-HT1A Functional Assay (cAMP inhibition, forskolin-stimulated adenylate cyclase). Conditions: read-out: cAMP Inhibition (EC50).

Where [3] appears, read: 0.5 mg/kg IP at 48, 24, 0 h before 6-hour blue-light exposure.
Where [4] appears, read: 1.0 mg/kg IP at 48, 24, 0 h before 6-hour blue-light exposure.

For the compound `FC(F)(F)c1cccc(C2=CCN(CCc3ccc4ccccc4c3)CC2)c1` [SR-57746A, xaliproden hydrochloride], the IC50 in series [1] worked out at 2.5 nM. Further, in series [2] (setting [3]), the “A-wave Amplitude Mean” value was determined as 550.5 μV and the “B-wave Amplitude Mean” value came out at 1361.1 μV. The “Maximum a- and b-wave response amplitudes, % of controls” value in series [2] (0.5 mg/kg, light-exposed rats) is on record as 82%. For the same compound, in series [2] (setting [4]), the “A-wave Amplitude Mean” value turned out to be 460.8 μV and the “B-wave Amplitude Mean” value amounted to 1169.4 μV. For the same compound, the “Maximum a- and b-wave response amplitudes, % of normal” value in series [2] (1 mg/kg, light-exposed rats) is recorded as 70%. Further, the “Protection of retinal function” value in series [2] (0.5 and 1.0 mg/kg, light-exposed rats) is on record as “Significant protection of retinal function”. For the same compound, the EC50 at 5-HT1A receptors is 3.7 nM.
